One test concerns the target JAK2 (Homo sapiens (Human), UniProt O60674). As to the kind of experiment: JAK2 enzyme activity inhibition (LANCE Ultra kinase assay). Background: TR-FRET usually uses a lanthanide donor and a delayed reading to cut background.
In another test the target is JAK3 (Homo sapiens (Human), UniProt P52333). Briefly: JAK3 enzyme activity inhibition (LANCE Ultra kinase assay). Conditions: read-out: JAK3 inhibitory activity IC50.

pIC50: −log10 of the molar value. Read-outs that look alike come from different tables or passages of the source.

JAK2, sequence (O60674 whole entry): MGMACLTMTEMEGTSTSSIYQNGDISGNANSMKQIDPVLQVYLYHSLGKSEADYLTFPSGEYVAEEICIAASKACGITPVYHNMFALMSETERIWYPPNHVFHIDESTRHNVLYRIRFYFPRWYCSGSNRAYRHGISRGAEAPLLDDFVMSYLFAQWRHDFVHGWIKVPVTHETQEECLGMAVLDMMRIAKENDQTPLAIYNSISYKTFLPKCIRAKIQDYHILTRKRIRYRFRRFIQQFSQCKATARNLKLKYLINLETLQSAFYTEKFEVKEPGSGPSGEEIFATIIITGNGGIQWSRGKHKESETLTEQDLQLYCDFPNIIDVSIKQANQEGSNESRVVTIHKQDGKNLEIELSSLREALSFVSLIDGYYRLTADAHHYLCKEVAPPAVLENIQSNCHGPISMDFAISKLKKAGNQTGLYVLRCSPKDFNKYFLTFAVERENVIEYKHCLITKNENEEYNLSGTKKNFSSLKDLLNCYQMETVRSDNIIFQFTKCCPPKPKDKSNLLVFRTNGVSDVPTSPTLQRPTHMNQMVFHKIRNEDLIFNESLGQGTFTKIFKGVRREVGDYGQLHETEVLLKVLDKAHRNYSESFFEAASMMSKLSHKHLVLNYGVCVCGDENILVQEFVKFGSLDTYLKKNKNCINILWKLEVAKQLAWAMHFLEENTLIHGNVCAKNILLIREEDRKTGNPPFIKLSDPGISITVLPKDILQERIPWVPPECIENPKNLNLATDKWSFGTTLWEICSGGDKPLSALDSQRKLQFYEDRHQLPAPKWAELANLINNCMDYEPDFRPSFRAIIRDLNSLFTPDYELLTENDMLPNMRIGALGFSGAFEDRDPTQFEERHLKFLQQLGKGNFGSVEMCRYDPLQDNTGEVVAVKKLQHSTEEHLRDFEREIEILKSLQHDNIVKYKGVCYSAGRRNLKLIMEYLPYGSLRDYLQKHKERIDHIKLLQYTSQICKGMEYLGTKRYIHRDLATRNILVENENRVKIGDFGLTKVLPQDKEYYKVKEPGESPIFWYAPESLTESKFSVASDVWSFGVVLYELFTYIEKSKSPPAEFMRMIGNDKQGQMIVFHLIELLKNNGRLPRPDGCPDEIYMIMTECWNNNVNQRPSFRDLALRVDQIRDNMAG
JAK3, sequence (P52333 whole entry): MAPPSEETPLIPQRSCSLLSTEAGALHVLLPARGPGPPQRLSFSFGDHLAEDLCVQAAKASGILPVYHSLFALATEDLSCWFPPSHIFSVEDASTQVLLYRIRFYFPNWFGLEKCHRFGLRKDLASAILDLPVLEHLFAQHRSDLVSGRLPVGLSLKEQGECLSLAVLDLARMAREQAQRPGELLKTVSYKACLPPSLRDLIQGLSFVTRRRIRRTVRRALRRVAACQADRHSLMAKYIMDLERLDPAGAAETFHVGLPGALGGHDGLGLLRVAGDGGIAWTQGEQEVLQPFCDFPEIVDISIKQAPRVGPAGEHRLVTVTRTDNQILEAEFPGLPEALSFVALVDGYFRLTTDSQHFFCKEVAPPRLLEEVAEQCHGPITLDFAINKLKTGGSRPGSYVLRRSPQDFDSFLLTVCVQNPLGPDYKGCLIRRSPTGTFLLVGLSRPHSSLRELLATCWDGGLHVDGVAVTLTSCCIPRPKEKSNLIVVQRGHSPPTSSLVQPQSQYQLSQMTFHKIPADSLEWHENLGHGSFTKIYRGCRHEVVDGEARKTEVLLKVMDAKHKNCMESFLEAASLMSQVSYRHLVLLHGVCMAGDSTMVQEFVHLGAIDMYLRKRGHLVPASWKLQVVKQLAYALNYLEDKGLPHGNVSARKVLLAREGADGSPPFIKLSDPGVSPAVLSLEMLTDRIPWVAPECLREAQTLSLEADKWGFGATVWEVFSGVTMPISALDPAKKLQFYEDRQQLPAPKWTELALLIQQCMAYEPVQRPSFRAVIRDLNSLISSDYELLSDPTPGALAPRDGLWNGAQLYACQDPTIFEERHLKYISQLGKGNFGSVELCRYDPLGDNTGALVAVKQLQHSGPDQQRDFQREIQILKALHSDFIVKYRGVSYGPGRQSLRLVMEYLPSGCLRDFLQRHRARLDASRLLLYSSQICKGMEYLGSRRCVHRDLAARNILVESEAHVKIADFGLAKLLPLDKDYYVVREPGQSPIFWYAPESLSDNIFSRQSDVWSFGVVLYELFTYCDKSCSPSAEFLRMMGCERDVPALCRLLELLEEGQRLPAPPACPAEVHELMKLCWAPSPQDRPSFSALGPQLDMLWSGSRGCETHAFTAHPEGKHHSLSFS

In general, pIC50 refers to the IC50 on a negative log10 scale, so that one unit is a factor of ten. On to `CCS(=O)(=NC)N1CC(CC#N)(n2cc(-c3ncnc4[nH]ccc34)cn2)C1` (centres unmarked) [LW104-P], for which the figures for the pIC50 against JAK2 and on JAK3 were 7.00 to 8.00 and 6.67, respectively.

As for `CCS(=O)(=NC1CC1)N1CC(CC#N)(n2cc(-c3ncnc4[nH]ccc34)cn2)C1` (centres unmarked) [LW104-O], the pIC50 on JAK3 is 6.53.

`CC(N=[S@@](C)(=O)N1CC(CC#N)(n2cc(-c3ncnc4[nH]ccc34)cn2)C1)c1ccccc1` (stereo in doubt) [LW104-G] had a pIC50 against JAK2 of 7.00 to 8.00.

`CCS(=N)(=O)N1CC(CC#N)(n2cc(-c3ncnc4[nH]ccc34)cn2)C1` (centres unmarked) [LW104-B]: the pIC50 at JAK2 is 8.00 to 10.00; on JAK3 it was 6.87.

For the compound `CN=S(C)(=O)N1CC(CC#N)(n2cc(-c3ncnc4[nH]ccc34)cn2)C1` (centres unmarked) [LW104-F], the pIC50 against JAK2 is 8.00 to 10.00; on JAK3, 6.84.

On to `CS(=N)(=O)N1CC(CC#N)(n2cc(-c3ncnc4[nH]ccc34)cn2)C1` (centres unmarked) [LW104-A], for which the pIC50 at JAK2 was 8.00 to 10.00; at JAK3 it was 7.01.

For `CCS(=N)(=O)N1CC(CC#N)(n2cc(-c3ncnc4[nH]ccc34)cn2)C1` (single isomer, unassigned) [LW104-J], the figures for the pIC50 at JAK2 and on JAK3 were 8.00 to 10.00 and 6.94, respectively.

On to `N#CCC1(n2cc(-c3ncnc4[nH]ccc34)cn2)CN(S(=N)(=O)C2CC2)C1` (centres unmarked) [LW104-E], for which the negative-log IC50 (pIC50) was 8.00 to 10.00 at JAK2 and 6.73 on JAK3.

For the compound `CC(C)S(=N)(=O)N1CC(CC#N)(n2cc(-c3ncnc4[nH]ccc34)cn2)C1` (centres unmarked) [LW104-D], on JAK3, the pIC50 was 6.72.

`CCN=S(=O)(C1CC1)N1CC(CC#N)(n2cc(-c3ncnc4[nH]ccc34)cn2)C1` (centres unmarked) [LW104-M]: the pIC50 at JAK3 was 6.71.

As for `CCS(=N)(=O)N1CC(CC#N)(n2cc(-c3ncnc4[nH]ccc34)cn2)C1` (single isomer, unassigned) [LW104-K], the pIC50 on JAK2 (read-out: JAK2 inhibitory activity IC50, class symbols) was 8.00 to 10.00; at JAK3, 7.16.

For the compound `CN=S(=O)(C1CC1)N1CC(CC#N)(n2cc(-c3ncnc4[nH]ccc34)cn2)C1` (centres unmarked) [LW104-L], the values for the negative logarithm of the IC50 (pIC50) against JAK2 and at JAK3 were 8.00 to 10.00 and 6.80, respectively.

`N#CCC1(n2cc(-c3ncnc4[nH]ccc34)cn2)CN(S(=O)(=NC2CC2)C2CC2)C1` (centres unmarked) [LW104-N]: the pIC50 at JAK2 is 8.00 to 10.00; on JAK3, 6.69.

`N#CCC1(n2cc(-c3ncnc4[nH]ccc34)cn2)CN(S(=N)(=O)c2ccccc2)C1` (centres unmarked) [LW104-C]: the pIC50 against JAK2 is 7.00 to 8.00; at JAK3, 6.37.

For the compound `CC(C)N=S(C)(=O)N1CC(CC#N)(n2cc(-c3ncnc4[nH]ccc34)cn2)C1` (centres unmarked) [LW104-I], the pIC50 on JAK2 is 7.00 to 8.00; on JAK3, 6.19.

(Values after US11524961B2, “JAK kinase inhibitor and preparation method and use thereof” (Shanghai Longwood Biopharmaceuticals Co., Ltd., priority 2017, dated 2022).)
